Data from patent US20170368119A1, “METHODS AND COMPOSITIONS FOR TREATING C-MET ASSOCIATED CANCERS” (YEASTERN BIOTECH CO., LTD, priority 2014, published 2017).

Experiments:
HCC329 [1] = test: cell proliferation assay (doubling time), HCC329; type: cell-based, human; details: 0.5, 1.0 and 2.0 μg/ml, dose dependent, 72 hours, untreated = 100%
Experimental: (§1) The most motile HCC cell lines identified in Example 2, namely HCC372 and HCC329, were employed for testing the molecular and cellular effects of FIP-gts on HCC, in comparison with those of JNJ-38877605 (abbreviated hereafter as JNJ), which is an ATP-competitive inhibitor for the catalytic activity of c-Met. In the cell proliferation assay, HCC329 and HCC372 cells were untreated or treated with FIP-gts (prepared in Example 4) at 0.5, 1.0 or 2.0 μg/ml for 72 hours. Cell numbers were counted, and the relative doubling times of the respective treated groups were determined by taking the data of the untreated group as 100%. The wound healing migration assay was repeated as described in Example 2, except that HCC329 and HCC372 were additionally treated with FIP-gts and JNJ (MedKoo Biosciences, Chapel Hill, N.C., USA), respectively, for 48 hours. Relative migration was analyzed quantitatively by taking the motility of untreated cells (Con) as 1.0. The results were shown in FIGS. 3A and 3B, in which the symbols (**), (*) and (#) represent statistical significance (p<0.005 and p<0.05, respectively, n=3) between the indicated inhibitor-treated samples and untreated HCC329 or HCC372 control group.

HCC372 [2] = test: cell proliferation assay (doubling time), HCC372; type: cell-based, human; details: 0.5, 1.0 and 2.0 μg/ml, dose dependent, 72 hours, untreated = 100%
Experimental: as §1

HCC372 [3] = test: wound healing migration assay, HCC372; type: cell-based, human; details: FIP-gts 2.0 μg/ml, 48 hours
Experimental: (§2) The HCC cells were cultivated on 24-well plates accompanied with a wound healing culture insert until confluence followed by serum starvation of the cells for 24 hours and the culture insert were then removed. After appropriate treatments, pictures were taken under a phase contrast microscope at indicated times. Quantitative analysis of motility of the HCC cell lines described in Example 1 was performed by directly counting the cells migrating into the blanking area at 48 hours using Image J. Software available from the NIH website. In general, motilities of the mesenchymal HCCs were higher than those of the epithelial ones.
The most motile HCC cell lines identified in Example 2, namely HCC372 and HCC329, were employed for testing the molecular and cellular effects of FIP-gts on HCC, in comparison with those of JNJ-38877605 (abbreviated hereafter as JNJ), which is an ATP-competitive inhibitor for the catalytic activity of c-Met. In the cell proliferation assay, HCC329 and HCC372 cells were untreated or treated with FIP-gts (prepared in Example 4) at 0.5, 1.0 or 2.0 μg/ml for 72 hours. Cell numbers were counted, and the relative doubling times of the respective treated groups were determined by taking the data of the untreated group as 100%. […] Relative migration was analyzed quantitatively by taking the motility of untreated cells (Con) as 1.0. […]

HCC329 [4] = test: wound healing migration assay, HCC329; type: cell-based, human; details: FIP-gts, 48 hours
Experimental: The HCC cells were cultivated on 24-well plates accompanied with a wound healing culture insert until confluence followed by serum starvation of the cells for 24 hours and the culture insert were then removed. After appropriate treatments, pictures were taken under a phase contrast microscope at indicated times.
Cell numbers were counted, and the relative doubling times of the respective treated groups were determined by taking the data of the untreated group as 100%. […] Relative migration was analyzed quantitatively by taking the motility of untreated cells (Con) as 1.0.

HepG2 = test: wound healing migration assay, HGF-induced HepG2; type: cell-based, human; details: 25 nM HGF, FIP-gts 2.0 μg/ml versus JNJ 26.5 nM, 48 hours
Experimental: as §2
In a separate experiment, human hepatoma cell line HepG2, a non-motile HCC cell line conventionally used for observing HGF-inducible molecular and cellular effects, was employed. In this experiment, the wound healing migration assay described in Example 2 was again repeated, except that HepG2 (purchased from Bioresource Collection and Research Center (BCRC), Hsinchu, Taiwan) was treated with FIP-gts or JNJ-38877605 for 48 hours in the presence or absence of 25 nM HGF (PeproTech Inc., Rocky Hill, N.J., USA). Relative migration was quantitatively analyzed taking the motility of untreated cells (Con) as 1.0. […]

HCC329 [5] = test: HCC329 tumor development and metastasis in SCID mice model; type: in vivo; details: FIP-gts 4.0-20 μg/g mouse, intraperitoneal twice a week, 2 months
Experimental: HCC329 cells (approximately 2×10^7) suspended in 100 μl Dulbecco's Modified Eagle Medium (DMEM; Gibco, Grand Island, N.Y., USA) were directly injected into the subserosa of the middle liver lobe of the SCID mice, followed by intraperitoneal administration twice a week with DMEM as a vehicle, vehicle-containing FIP-gts (4.0-20 μg/g mouse) or JNJ (0.5-2.0 nmole/g mouse).
The mice were sacrificed 2 months after injection. Tumor mass was measured and the occurrence of intrahepatic metastasis and/or extrahepatic metastasis was recorded. Nodules with diameter of more than 0.1-0.2 cm observed on the left or right lobes were recognized as secondary tumor foci. […] Extra-hepatic metastasis was defined to be the case where the tumors appearing in organs other than liver such as in intestine. During the animal experiment, the regulations relevant to the care and use of laboratory animals were followed. This was approved by the Institutional Animal Care and Use Committee (IACUC) in Tzu Chi University (No. of consent form: 102080).

[6] = toxicity test on normal SCID mice; type: in vivo; details: 20 μg/g mouse intraperitoneal, 2-3 month, data not shown
Experimental: In comparison, the effect of c-Met inhibitor JNJ on tumor progression of HCC329 was not prominent (FIG. 4). The toxicity test of FIP-gts on SCID mice was also performed by treating 4 normal SCID mice without inoculation of HCC329.

[7] = test system: p-JNK, p-ERK, p-AKT, p-EGFR in HCC329; test: immuno-blotting of signaling molecules, HCC329; type: cell-based, human
Text: To investigate the molecular mechanism of FIP-gts in suppression of tumor progression of HCCs, the effects of FIP-gts on the activity and/or quantity of the critical members present in c-Met dependent signaling pathway, including c-Met, phosphorylated c-Met (p-c-Met) and downstream effectors p-JNK and p-ERK, were examined in HCCs. […] Total proteins were harvested from the cells and subjected to immuno-blotting analysis using GAPDH as a loading control. Antibodies for p-c-Met, p-JNK, p-ERK and p-paxillin (S178), GAPDH and ERK were purchased from Santa Cruz Biotechnology (California, USA). The band intensities on the blots were quantified with Image J. Software. Relative band intensity of each molecule was calculated, taking the data of untreated HCC372 or HCC329 as 1.0.

[8] = test system: c-Met, p-c-Met, p-JNK, p-ERK, p-AKT in HCC372; test: immuno-blotting of c-Met dependent signaling, HCC372; type: cell-based, human; details: 2.0 μg/ml
Experimental: To investigate the molecular mechanism of FIP-gts in suppression of tumor progression of HCCs, the effects of FIP-gts on the activity and/or quantity of the critical members present in c-Met dependent signaling pathway, including c-Met, phosphorylated c-Met (p-c-Met) and downstream effectors p-JNK and p-ERK, were examined in HCCs. HCC329 and HCC372 cells were treated with FIP-gts (2 μg/ml) for 4 or 24 hours. Total proteins were harvested from the cells and subjected to immuno-blotting analysis using GAPDH as a loading control. Antibodies for p-c-Met, p-JNK, p-ERK and p-paxillin (S178), GAPDH and ERK were purchased from Santa Cruz Biotechnology (California, USA). The band intensities on the blots were quantified with Image J. Software. Relative band intensity of each molecule was calculated, taking the data of untreated HCC372 or HCC329 as 1.0. The results were shown in FIGS. 5A and 5B, in which (**) (##) and (*) (#) represent statistical significance (p<0.005 and p<0.05, respectively, n=3) between the indicated inhibitor-treated sample and untreated HCC329 or HCC372 control group.

[9] = test system: HGF-induced c-Met signaling in HepG2; test: immuno-blotting of HGF-induced c-Met signaling, HepG2; type: cell-based, human; details: 2.0 μg/ml, 0.5 hour, HGF 25 nM
Experimental: HepG2 cells were treated with FIP-gts (2.0 μg/ml) for 0.5 hour in the presence or absence of HGF (25 nM). Total proteins were harvested from the cells and immuno-blotting analysis was performed as described in Example 6, except using ERK as the loading control. The results were shown in FIGS. 5C and 5D, in which (**) represent statistical significance (p<0.005, n=3) between the indicated HGF/FIP-gts co-treated sample and the HGF alone group.

## FIP-gts: fungal immunomodulatory protein of SEQ ID NO: 1 (Ganoderma tsugae), recombinantly expressed in Saccharomyces cerevisiae
HCC329 [1]
  increase of doubling time: 25-46%
HCC372 [2]
  increase of doubling time: 14-47%
HCC372 [3]
  suppression of cell migration: 95%
HCC329 [4]
  suppression of cell migration: 80%
HepG2
  prevention of HGF-induced cell migration: much more effectively than JNJ
HCC329 [5]
  secondary tumors on liver lobes (intra-hepatic metastasis): normal liver lobule structure
  tumor progression (primary tumor growth and intra-metastasis) of HCC329: dramatically suppressed tumor progression
[6]
  adverse effects (activity of animals, integrity of organs): no adverse effects was observed
[7]; 2.0 μg/ml, 24 hours
  decrease of phosphorylation of AKT: 18%
  decrease of phosphorylation of ERK: 51%
  decrease of phosphorylation of JNK: 85%
[7]; 16 hours, versus untreated, data not shown
  phosphorylated EGFR (p-EGFR) level: remarkably reduced
[8]
  effect on p-JNK: didn't decrease p-JNK at all
[8]; 4th hour
  suppression of expression of Met protein: 90-95%
  suppression of phosphorylation of AKT: 80-95%
  suppression of phosphorylation of ERK: 80-95%
  suppression of phosphorylation of Met (at Tyr1234): 55%
[9]
  suppression of HGF-induced p-ERK: 85-90%
  suppression of HGF-induced p-JNK: 85-90%
  suppression of HGF-induced p-c-Met: 85-90%
  suppression of HGF-induced phosphorylated paxillin (at Ser 178): 85-90%
